# Test results taken from ChEMBL document CHEMBL3351812, “Discovery and SAR of a novel series of metabotropic glutamate receptor 5 positive allosteric modulators with high ligand efficiency” (Bioorg Med Chem Lett, 2014).
# The source made the active and inactive calls. No cut-off for these calls is given here.
# How the values were obtained:
# [1] = biological target: Metabotropic glutamate receptor 5 (Rattus norvegicus) (UniProt P31424); experiment: Positive allosteric modulation of rat mGlu5 receptor expressed in HEK293 cells relative to glutamate; format: cell-based; parameters: concentration or dose not given beside the values
# [2] = biological target: Metabotropic glutamate receptor 5 (Rattus norvegicus, UniProt P31424); experiment: (§1) Positive allosteric modulation of rat mGlu5 receptor expressed in HEK293 cells; format: cell-based
# [3] = biological target: Metabotropic glutamate receptor 5 (Rattus norvegicus) (UniProt P31424); experiment: as §1; format: cell-based
# Plasma [4] = experiment: (§2) Fraction unbound in human plasma; format: ADME, cell-free
# Plasma [5] = experiment: (§3) Fraction unbound in rat plasma; format: ADME, cell-free
# Cytochrome P450 2D6 = Cytochrome P450 2D6 (Homo sapiens, UniProt P10635); experiment: Inhibition of CYP2D6 (unknown origin); format: ADME
# Cytochrome P450 3A4 = Cytochrome P450 3A4 (Homo sapiens, UniProt P08684); experiment: Inhibition of CYP3A4 (unknown origin); format: ADME
# [6] = biological target: Metabotropic glutamate receptor 1 (Homo sapiens) (UniProt Q13255); experiment: Positive allosteric modulation of human mGlu1 receptor
# [7] = biological target: Metabotropic glutamate receptor 7 (Homo sapiens) (UniProt Q14831); experiment: Positive allosteric modulation of human mGlu7 receptor
# [8] = as §2; format: ADME, cell-free
# [9] = biological target: Metabotropic glutamate receptor 2 (Homo sapiens) (UniProt Q14416); experiment: Positive allosteric modulation of human mGlu2 receptor
# [10] = biological target: Metabotropic glutamate receptor 2 (Rattus norvegicus) (UniProt P31421); experiment: Positive allosteric modulation of rat mGlu2 receptor
# [11] = biological target: Metabotropic glutamate receptor 3 (Rattus norvegicus) (UniProt P31422); experiment: Positive allosteric modulation of rat mGlu3 receptor
# [12] = as §3; format: ADME, cell-free
# [13] = biological target: Metabotropic glutamate receptor 8 (Homo sapiens) (UniProt O00222); experiment: Positive allosteric modulation of human mGlu8 receptor
# Plasma [14] = experiment: Stability in human plasma at 37 degC after 4 hrs; format: ADME, cell-free
# Cytochrome P450 1A2 = biological target: T1, Cytochrome P450 1A2 (Homo sapiens, UniProt P05177); experiment: Inhibition of CYP1A2 (unknown origin); format: ADME
# T1 sequence (P05177 whole entry): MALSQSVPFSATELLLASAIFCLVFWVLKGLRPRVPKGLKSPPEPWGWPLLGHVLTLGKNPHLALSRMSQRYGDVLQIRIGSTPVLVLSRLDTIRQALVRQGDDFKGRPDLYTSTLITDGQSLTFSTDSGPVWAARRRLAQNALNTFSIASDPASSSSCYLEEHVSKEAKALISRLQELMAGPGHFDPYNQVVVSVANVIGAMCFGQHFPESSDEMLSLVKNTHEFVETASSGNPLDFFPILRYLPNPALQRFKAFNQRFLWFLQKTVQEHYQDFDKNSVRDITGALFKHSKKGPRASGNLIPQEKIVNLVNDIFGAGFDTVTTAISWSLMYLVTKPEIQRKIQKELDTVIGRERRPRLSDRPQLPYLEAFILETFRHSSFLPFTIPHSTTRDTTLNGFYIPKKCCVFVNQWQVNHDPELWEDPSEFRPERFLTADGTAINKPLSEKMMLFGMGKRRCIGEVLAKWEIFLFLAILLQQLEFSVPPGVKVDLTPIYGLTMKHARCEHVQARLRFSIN
# Plasma [15] = experiment: Stability in rat plasma at 37 degC after 4 hrs; format: ADME, cell-free
# [16] = biological target: Metabotropic glutamate receptor 1 (Rattus norvegicus) (UniProt P23385); experiment: Positive allosteric modulation of rat mGlu1 receptor
# [17] = biological target: Metabotropic glutamate receptor 7 (Rattus norvegicus) (UniProt P35400); experiment: Positive allosteric modulation of rat mGlu7 receptor
# [18] = biological target: Metabotropic glutamate receptor 6 (Rattus norvegicus) (UniProt P35349); experiment: Positive allosteric modulation of rat mGlu6 receptor
# [19] = biological target: Metabotropic glutamate receptor 8 (Rattus norvegicus) (UniProt P70579); experiment: Positive allosteric modulation of rat mGlu8 receptor
# [20] = biological target: Metabotropic glutamate receptor 6 (Homo sapiens) (UniProt O15303); experiment: Positive allosteric modulation of human mGlu6 receptor
# Cytochrome P450 2C9 = Cytochrome P450 2C9 (Homo sapiens, UniProt P11712); experiment: Inhibition of CYP2C9 (unknown origin); format: ADME
# [21] = biological target: Metabotropic glutamate receptor 3 (Homo sapiens) (UniProt Q14832); experiment: Positive allosteric modulation of human mGlu3 receptor
# Chain of Metabotropic glutamate receptor 5 (Rattus norvegicus) (P31424 21-1203 limits assumed): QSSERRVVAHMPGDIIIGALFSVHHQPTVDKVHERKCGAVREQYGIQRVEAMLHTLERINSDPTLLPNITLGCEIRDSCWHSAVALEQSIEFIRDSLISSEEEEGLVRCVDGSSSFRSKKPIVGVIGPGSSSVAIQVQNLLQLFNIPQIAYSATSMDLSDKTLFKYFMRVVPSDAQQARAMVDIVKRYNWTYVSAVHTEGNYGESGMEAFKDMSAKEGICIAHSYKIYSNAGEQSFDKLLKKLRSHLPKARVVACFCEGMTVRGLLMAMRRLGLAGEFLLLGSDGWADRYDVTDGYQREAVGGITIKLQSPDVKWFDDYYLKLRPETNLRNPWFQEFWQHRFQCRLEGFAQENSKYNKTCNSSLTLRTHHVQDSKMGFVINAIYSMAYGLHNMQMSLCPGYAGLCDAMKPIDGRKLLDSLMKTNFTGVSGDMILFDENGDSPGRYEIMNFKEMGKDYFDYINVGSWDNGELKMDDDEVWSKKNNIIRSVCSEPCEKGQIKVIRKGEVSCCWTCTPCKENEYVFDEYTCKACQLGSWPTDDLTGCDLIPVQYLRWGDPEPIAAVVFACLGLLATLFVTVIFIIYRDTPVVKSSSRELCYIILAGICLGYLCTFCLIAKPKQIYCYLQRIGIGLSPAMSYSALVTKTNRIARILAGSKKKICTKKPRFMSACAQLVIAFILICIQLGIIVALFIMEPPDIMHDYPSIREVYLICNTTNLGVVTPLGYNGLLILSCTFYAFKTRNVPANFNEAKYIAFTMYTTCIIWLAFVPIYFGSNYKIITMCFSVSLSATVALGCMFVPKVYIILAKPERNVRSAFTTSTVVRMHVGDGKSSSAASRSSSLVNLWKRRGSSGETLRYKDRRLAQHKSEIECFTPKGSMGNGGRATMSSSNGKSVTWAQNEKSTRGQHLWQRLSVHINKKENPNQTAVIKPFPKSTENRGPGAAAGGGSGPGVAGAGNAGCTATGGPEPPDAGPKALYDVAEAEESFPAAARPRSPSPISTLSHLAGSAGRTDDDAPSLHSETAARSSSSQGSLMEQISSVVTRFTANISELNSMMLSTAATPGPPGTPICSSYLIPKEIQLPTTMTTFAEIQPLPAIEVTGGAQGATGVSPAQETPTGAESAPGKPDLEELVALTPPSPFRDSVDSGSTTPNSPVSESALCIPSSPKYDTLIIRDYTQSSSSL
# Chain of Metabotropic glutamate receptor 5 (P31424 whole entry): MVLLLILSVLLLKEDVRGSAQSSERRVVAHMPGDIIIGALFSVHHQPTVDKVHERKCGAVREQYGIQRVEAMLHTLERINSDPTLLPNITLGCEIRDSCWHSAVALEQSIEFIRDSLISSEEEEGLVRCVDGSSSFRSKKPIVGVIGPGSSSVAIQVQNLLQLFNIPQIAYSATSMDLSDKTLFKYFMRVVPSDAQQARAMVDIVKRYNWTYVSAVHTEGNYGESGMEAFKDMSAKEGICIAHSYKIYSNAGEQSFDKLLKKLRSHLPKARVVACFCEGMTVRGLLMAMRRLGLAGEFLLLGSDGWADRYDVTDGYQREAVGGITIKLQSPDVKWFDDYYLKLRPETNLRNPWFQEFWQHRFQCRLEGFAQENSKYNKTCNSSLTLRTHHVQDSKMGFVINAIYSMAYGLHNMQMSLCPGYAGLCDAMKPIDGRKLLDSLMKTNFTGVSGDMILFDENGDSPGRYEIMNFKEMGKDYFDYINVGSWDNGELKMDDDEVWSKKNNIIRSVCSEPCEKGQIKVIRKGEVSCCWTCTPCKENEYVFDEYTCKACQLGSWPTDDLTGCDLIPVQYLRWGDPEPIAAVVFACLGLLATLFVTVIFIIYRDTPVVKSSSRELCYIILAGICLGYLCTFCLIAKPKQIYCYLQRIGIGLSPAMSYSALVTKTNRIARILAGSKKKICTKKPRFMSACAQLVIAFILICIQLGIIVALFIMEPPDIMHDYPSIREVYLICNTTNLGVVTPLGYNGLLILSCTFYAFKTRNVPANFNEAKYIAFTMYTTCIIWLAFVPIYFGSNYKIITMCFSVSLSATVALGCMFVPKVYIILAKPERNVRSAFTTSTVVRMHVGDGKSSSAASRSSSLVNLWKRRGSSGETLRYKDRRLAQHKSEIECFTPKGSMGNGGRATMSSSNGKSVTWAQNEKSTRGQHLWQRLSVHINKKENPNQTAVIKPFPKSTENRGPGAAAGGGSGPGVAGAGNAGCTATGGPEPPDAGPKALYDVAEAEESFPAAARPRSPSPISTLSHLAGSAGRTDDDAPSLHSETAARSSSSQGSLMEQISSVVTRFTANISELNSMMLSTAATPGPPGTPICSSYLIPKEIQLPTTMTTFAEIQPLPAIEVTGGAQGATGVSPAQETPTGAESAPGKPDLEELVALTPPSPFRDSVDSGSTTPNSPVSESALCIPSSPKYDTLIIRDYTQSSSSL
# Chain of Metabotropic glutamate receptor 6 (Homo sapiens) (O15303 whole entry): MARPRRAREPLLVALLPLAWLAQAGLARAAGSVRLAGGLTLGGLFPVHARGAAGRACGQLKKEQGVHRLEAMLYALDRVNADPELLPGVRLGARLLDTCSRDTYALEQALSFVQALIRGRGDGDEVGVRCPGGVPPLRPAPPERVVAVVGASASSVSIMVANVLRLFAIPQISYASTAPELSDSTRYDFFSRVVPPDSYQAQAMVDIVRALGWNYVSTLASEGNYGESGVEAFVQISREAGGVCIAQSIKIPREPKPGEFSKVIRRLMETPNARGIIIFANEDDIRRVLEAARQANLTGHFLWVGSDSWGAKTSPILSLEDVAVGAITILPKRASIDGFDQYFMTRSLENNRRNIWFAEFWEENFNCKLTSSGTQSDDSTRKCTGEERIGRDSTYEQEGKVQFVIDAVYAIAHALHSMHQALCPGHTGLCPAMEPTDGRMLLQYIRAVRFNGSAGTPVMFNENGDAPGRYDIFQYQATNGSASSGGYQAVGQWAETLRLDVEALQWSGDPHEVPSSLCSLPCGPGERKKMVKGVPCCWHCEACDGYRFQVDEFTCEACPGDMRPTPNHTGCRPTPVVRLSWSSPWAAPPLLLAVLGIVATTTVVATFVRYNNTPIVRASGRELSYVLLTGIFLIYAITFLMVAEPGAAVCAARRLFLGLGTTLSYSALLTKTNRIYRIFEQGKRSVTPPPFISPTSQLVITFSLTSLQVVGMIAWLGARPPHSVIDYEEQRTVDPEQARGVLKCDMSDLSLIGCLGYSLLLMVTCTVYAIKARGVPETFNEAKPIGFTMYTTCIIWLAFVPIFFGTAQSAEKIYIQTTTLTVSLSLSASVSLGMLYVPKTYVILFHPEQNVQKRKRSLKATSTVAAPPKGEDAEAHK
# Chain of Metabotropic glutamate receptor 2 (Homo sapiens) (Q14416 19-872 limits assumed): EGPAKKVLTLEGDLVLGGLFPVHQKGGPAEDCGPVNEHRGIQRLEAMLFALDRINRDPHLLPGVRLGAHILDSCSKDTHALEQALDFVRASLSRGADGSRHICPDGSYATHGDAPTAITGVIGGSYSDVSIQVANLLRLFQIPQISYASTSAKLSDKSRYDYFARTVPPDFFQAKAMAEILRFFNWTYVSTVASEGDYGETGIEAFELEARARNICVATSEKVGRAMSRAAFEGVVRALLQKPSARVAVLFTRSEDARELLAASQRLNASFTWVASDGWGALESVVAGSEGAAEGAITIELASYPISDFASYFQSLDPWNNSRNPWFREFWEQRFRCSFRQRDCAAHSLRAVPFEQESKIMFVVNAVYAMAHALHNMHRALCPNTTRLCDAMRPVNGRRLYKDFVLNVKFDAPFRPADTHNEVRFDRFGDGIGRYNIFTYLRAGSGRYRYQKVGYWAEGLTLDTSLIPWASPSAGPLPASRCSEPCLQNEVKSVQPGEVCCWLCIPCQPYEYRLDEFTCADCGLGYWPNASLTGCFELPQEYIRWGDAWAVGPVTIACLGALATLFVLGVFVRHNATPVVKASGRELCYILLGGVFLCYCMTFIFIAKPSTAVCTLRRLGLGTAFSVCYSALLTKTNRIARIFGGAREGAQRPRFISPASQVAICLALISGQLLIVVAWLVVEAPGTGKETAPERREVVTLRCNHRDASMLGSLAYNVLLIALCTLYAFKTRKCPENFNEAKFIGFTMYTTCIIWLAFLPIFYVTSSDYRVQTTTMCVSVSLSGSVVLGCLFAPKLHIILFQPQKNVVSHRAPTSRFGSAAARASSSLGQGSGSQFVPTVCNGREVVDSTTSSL
# Chain of Metabotropic glutamate receptor 3 (Rattus norvegicus) (P31422 23-879 limits assumed): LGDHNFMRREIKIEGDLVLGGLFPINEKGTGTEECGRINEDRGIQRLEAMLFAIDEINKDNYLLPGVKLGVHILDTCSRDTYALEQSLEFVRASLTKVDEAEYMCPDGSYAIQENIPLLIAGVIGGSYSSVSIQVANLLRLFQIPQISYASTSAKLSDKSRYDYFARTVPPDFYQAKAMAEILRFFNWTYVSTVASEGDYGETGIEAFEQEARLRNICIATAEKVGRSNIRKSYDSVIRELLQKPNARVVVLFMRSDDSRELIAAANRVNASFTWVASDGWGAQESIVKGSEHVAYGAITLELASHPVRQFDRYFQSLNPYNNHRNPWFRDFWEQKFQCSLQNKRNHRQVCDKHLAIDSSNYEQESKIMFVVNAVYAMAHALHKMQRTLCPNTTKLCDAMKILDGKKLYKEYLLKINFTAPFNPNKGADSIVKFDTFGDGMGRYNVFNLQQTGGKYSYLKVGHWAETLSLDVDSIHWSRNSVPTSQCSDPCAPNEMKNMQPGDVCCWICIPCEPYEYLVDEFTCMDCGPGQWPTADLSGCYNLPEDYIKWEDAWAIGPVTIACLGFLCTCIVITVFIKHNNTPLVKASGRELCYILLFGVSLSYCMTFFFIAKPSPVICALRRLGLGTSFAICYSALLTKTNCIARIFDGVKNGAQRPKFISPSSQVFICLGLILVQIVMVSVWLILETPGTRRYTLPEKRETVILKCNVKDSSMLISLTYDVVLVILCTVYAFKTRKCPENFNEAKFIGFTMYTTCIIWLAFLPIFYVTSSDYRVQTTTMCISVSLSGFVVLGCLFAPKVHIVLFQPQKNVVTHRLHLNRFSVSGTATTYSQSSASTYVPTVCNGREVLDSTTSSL
SMILES,Activity [1] [%],EC50 [2] [nM],also measured
c1ccc(OCc2cc3n(n2)CCCC3OCC2CC2)cc1 (stereo not drawn),43,2520,
c1ccc(OCc2cc3n(n2)CCCC3NCc2ccncc2)cc1 (stereo not drawn),68,2570,
CC1(C)CCn2nc(COc3ccccc3)cc2C1O (stereo not drawn),60,4410,
COc1ccc(CNC2CCCn3nc(COc4ccccc4)cc32)cc1 (stereo not drawn),60,290,
O=C1CCCn2nc(OCc3ccccc3)cc21,,,Activity [3]: inactive
O=C1CCCc2nc(COc3ccccc3)sc21,65,441,
OC1(C(F)(F)F)CCCn2nc(COc3ccccc3)cc21 (stereo not drawn),54,3780,
COc1ccccc1C1CCn2nc(COc3ccccc3)cc2C1=O (stereo not drawn),68,43,
c1ccc(CNC2CCCn3nc(OCc4ccccc4)cc32)cc1 (stereo not drawn),48,618,
c1ccc(CNC2CCCn3nc(COc4ccccc4)cc32)cc1 (stereo not drawn),74,632,Fu (Plasma [4]): 0.02%; Fu (Plasma [5]): 0.03%
CC1CCn2nc(COc3ccccc3)cc2C1=O (stereo not drawn),76,285,
COC1CCCn2nc(COc3ccccc3)cc21 (stereo not drawn),43,2910,
CC(C)N1CCN(C2CCCn3nc(COc4ccccc4)cc32)CC1 (stereo not drawn),71,870,
OC1(c2ccccc2)CCCn2nc(COc3ccccc3)cc21 (stereo not drawn),49,1200,
CCCCC1(O)CCCn2nc(COc3ccccc3)cc21 (stereo not drawn),44,1820,
O=C1CCCn2nc(COc3ccccc3)cc21,66,129,inhibition (INH) (Cytochrome P450 2D6): Active; inhibition (INH) (Cytochrome P450 3A4): Active; Activity [6]: > 10 µM; Activity [7]: > 10 µM; fraction unbound [8]: 0.23; Activity [9]: > 10 µM; Activity [10]: > 10 µM; Activity [11]: > 10 µM; fraction unbound [12]: 0.21; Activity [13]: > 10 µM; Stability (Plasma [14]): Stable; IC50 (Cytochrome P450 1A2): 6200 nM; Stability (Plasma [15]): Stable; Activity [16]: > 10 µM; Activity [17]: > 10 µM; Activity [18]: > 10 µM; Activity [19]: > 10 µM; Activity [20]: > 10 µM; inhibition (INH) (Cytochrome P450 2C9): Active; Activity [21]: > 10 µM
c1ccc(COC2CCCn3nc(COc4ccccc4)cc32)cc1 (stereo not drawn),70,989,
O=C1c2cc(COc3ccccc3)nn2CCC1c1ccc(F)cc1 (stereo not drawn),66,35,fraction unbound [8]: 0.008; fraction unbound [12]: 0.032
O=C1c2cc(OCc3ccccc3)nn2CCC1c1ccc(F)cc1 (stereo not drawn),48,95,
c1ccc(OCc2cc3n(n2)CCCC3NC2CC2)cc1 (stereo not drawn),50,1800,
O=C1c2cc(COc3ccccc3)nn2CCC1(Cc1ccccc1)Cc1ccccc1,37,> 10000,

SMILES,Activity [1] [%],EC50 [2] [nM],also measured
FC1(F)CCCn2nc(COc3ccccc3)cc21,52,625,
CC1(C)CCn2nc(COc3ccccc3)cc2C1OCc1ccccc1 (stereo not drawn),64,2320,
Clc1ccc(CNC2CCCn3nc(COc4ccccc4)cc32)cc1 (stereo not drawn),65,637,
c1ccc(OCc2cc3n(n2)CCCC3N2CCOCC2)cc1 (stereo not drawn),52,2360,
c1ccc(OCc2cc3n(n2)CCCC3NCc2cccnc2)cc1 (stereo not drawn),59,2840,
COC1c2cc(COc3ccccc3)nn2CCC1(C)C (stereo not drawn),75,796,
OC1CCCn2nc(COc3ccccc3)cc21 (stereo not drawn),47,2010,
CC1CCn2nc(COc3ccccc3)cc2C1(C)O (stereo not drawn),39,1680,
CC1(C)CCn2nc(COc3ccccc3)cc2C1=O,70,86,fraction unbound [8]: 0.1; fraction unbound [12]: 0.07; IC50 (Cytochrome P450 1A2): 7300 nM
Fc1cccc(CNC2CCCn3nc(COc4ccccc4)cc32)c1 (stereo not drawn),75,275,
CC1(C)CCn2nc(OCc3ccccc3)cc2C1=O,56,228,
O=C1c2cc(COc3ccccc3)nn2CCC1Cc1ccccc1 (stereo not drawn),73,124,
c1ccc(NC2CCCn3nc(COc4ccccc4)cc32)cc1 (stereo not drawn),62,269,
O=C1c2cc(COc3ccccc3)nn2CCC12CCCC2,60,48,
Fc1ccc(CNC2CCCn3nc(COc4ccccc4)cc32)cc1 (stereo not drawn),69,316,
COc1ccccc1C1(C)CCn2nc(COc3ccccc3)cc2C1=O (stereo not drawn),52,654,
CC1(c2ccc(F)cc2)CCn2nc(COc3ccccc3)cc2C1=O (stereo not drawn),58,228,
CN(Cc1ccccc1)C1CCCn2nc(COc3ccccc3)cc21 (stereo not drawn),71,686,
CC1(C)CCn2nc(COc3ccccc3)cc2C1NCc1ccccc1 (stereo not drawn),65,3620,
NC1CCCn2nc(COc3ccccc3)cc21 (stereo not drawn),45,> 10000,
